Several values for one entry are separate records, joined by “and”; a condition that tells them apart may be missing. Equal entries are not always repeated.
How the values were obtained:
Format in all cases: in vivo, rat
male Sprague Dawley rats [1] = test: Radiolabeled phosphate absorption in rats, Studies 1-3 (plasma radioactivity); settings: for Absorption (vs. vehicle control): mean ± SEM
Description: Effect of Example 2 in Combination with an NPT2b Inhibitor (Compound A) on Phosphate Absorption in Rats
NPT2b inhibitor dosing solutions: Compound A and poly-1-vinylpyrrolidone-co-vinyl acetate (PVP-VA, Sigma-Aldrich) are weighed into a bottle at a ratio of 30% Compound A and 70% PVP-VA by weight. A clear yellow solution is prepared by diluting the mixture in MeOH followed by the addition of 2 mol NaOH per mol Compound A using 5 N NaOH. The solution is spray dried by a stream of hot nitrogen and the solid dispersion powder is collected and then further dried in a vacuum oven. Doses for the sprayed dried solid dispersion (SDD) are expressed as active pharmaceutical ingredient (API) throughout.
To make the Compound A dosing solution, an appropriate amount of Compound A SDD is weighed in a vial and dissolved in water (10 mL/kg dosing volume). […] The subsequent solutions for lower doses are prepared by serial dilutions with water. PVP-VA at 7 mg/mL is used as a vehicle control.
NHE3 inhibitor dosing solutions: To make the Example 2 dosing solution, an appropriate amount of the compound is weighed in a vial and dissolved in 1% HEC (10 mL/kg dosing volume). […] The subsequent solutions for lower doses are prepared by serial dilutions with HEC.
To make the radiolabeled phosphate dosing solution, a 16.25 mM Na2HPO4, 0.9% saline, pH 7.4 solution is prepared and filtered using a sterile, 0.22 μm, polyethersulfone, Millex-GP Syringe Filter Unit (EMD Millipore). Radioactive phosphate (H3^33PO4, Perkin Elmer) is added at about 2.5 μCi per mL of the solution and filtered again.
Three separate studies are performed. In these studies, male Sprague Dawley rats, are randomized into groups with approximately equal mean body weights. Following an overnight fast, all the animals are dosed at 10 mL/kg with either vehicle, varying doses of Compound A (Study 1), varying doses of Example 2 (Study 2) or 1.2 mg/kg Compound A and varying doses of Example 2 (Study 3). 15 min later, radiolabeled phosphate is orally dosed in a 2 mL volume. 15 min later, blood is collected and plasma is prepared. Radioactivity (dpm) in 50 μL plasma is measured by scintillation counting and is used to calculate phosphate absorption. The results are normalized with the vehicle controls representing 100% absorption. The curves are fitted with nonlinear regression with variable slope using GraphPad Prism 6 to calculate the ED50 and Emax given in Table 7. […] No curve fit was performed for Compound A alone in Study 1.

male Sprague Dawley rats [2] = test: Phosphate absorption 15 min after radiolabeled phosphate (Example 2, Compound A, combination); settings: Compound A 10 mg/kg, plasma 15 min after radiolabeled phosphate, P=0.013 versus vehicle control
Description: Effect of Example 2 in Combination with an NPT2b Inhibitor (Compound A) on Phosphate Absorption and Intestinal Phosphate Retention in Rats
(§1) The purpose of this study is to investigate in rats the effect of Example 2, Compound A, and an Example 2/Compound A combination on phosphate absorption 15 min after dosing the compounds and the phosphate retained in the intestine 4.25 h after dosing the compounds. The latter is a measure of the oral phosphate load which is absorbed over an extended period.
(§2) Two vehicles are used in this study: 1) 1% HEC and 2) 0.46% poly-1-vinylpyrrolidone-co-vinyl acetate in water (PVP-VA vehicle). The vehicle control group in this study receives a 1:1 combination of the two vehicles.
The Example 2, Compound A and phosphate dosing solutions are prepared similarly as described above, except the doses are 0.4 mg/kg for Example 2 and 10 mg/kg for Compound A and they are prepared at a concentration where they would be dosed in a 5 mL/kg volume. […]
Male Sprague Dawley rats are fasted 4 h and then administered appropriate vehicles, 10 mg/kg Compound A, 0.4 mg/kg Example 2, or a combination of both compounds. […] Radioactivity in plasma is measured by scintillation counting and used to calculate the inhibition of phosphate absorption. […] Statistical significance is determined by ANOVA with a Dunnett's comparison to the Example 2/Compound A combination using JMP 12.1.

male Sprague Dawley rats [3] = test: Intestinal phosphate retention: percent radiolabeled dose recovered in gastrointestinal tract; settings: Compound A 10 mg/kg, 4 h after radiolabeled phosphate
Description: as §1, §2
The Example 2, Compound A and phosphate dosing solutions are prepared similarly as described above, except the doses are 0.4 mg/kg for Example 2 and 10 mg/kg for Compound A and they are prepared at a concentration where they would be dosed in a 5 mL/kg volume. The Example 2 and Compound A alone groups are mixed 1:1 with the vehicle of the other compound, while the Compound A and Example 2 are mixed 1:1 prior to dosing. The final dosing volume is 10 mL/kg in all cases.
4 h after the radiolabeled phosphate solution is dosed, stomach, small intestine, large intestine, and feces are collected, weighed and digested with 1N NaOH overnight at 37° C. Radioactivity in each fraction is measured by scintillation counting.
The percent dose recovered in gastrointestinal tract is defined as radioactivity recovered in stomach, small intestine, large intestine and feces compared to the amount dosed. Data is presented as mean±SEM with animal numbers equal to 8 for the groups. Statistical significance is determined by ANOVA with a Dunnett's comparison to the Example 2/Compound A combination using JMP 12.1.
The percent dose recovered in gastrointestinal tract data is further analyzed by a two-way ANOVA in JMP 12.1 to test for additivity of the effects of Example 2 and Compound A on inhibiting phosphate absorption. […] That is, the inhibitory effect of the combination is greater than the sum of the individual compound effects.

CC1(C)CN(C(=O)NCCCCO)CCN1Cc1cccc(C(=O)Nc2sc3c(c2C(=O)Nc2cc(F)c(CCc4ccc(C(=O)O)cc4)c(F)c2)CCCC3)c1 [Compound A, reference compound]
Absorption (vs. vehicle control) (male Sprague Dawley rats [1]; Study 1, rats, Compound A 0.01 mg/kg): 94.39 ± 7.88%
Absorption (vs. vehicle control) (male Sprague Dawley rats [1]; Study 1, rats, Compound A 0.1 mg/kg): 87.61 ± 6.08%
Absorption (vs. vehicle control) (male Sprague Dawley rats [1]; Study 1, rats, Compound A 1 mg/kg): 87.64 ± 7.26%
Absorption (vs. vehicle control) (male Sprague Dawley rats [1]; Study 1, rats, Compound A 10 mg/kg): 81.53 ± 5.50%
% Inhibition at the highest dose (phosphate absorption) (male Sprague Dawley rats [1]; Study 1, rats, Compound A highest dose tested (10 mg/kg)): 18%
Absorption (vs. vehicle control) (male Sprague Dawley rats [1]; Study 3, rats, Vehicle + Compound A 1.2 mg/kg): 71.00 ± 11.63%
Inhibition of phosphate absorption (male Sprague Dawley rats [2]): 35%
Percent Dose Recovered, Feces (male Sprague Dawley rats [3]): <0.1%
Percent Dose Recovered, Large Intestine (male Sprague Dawley rats [3]; mean ± SEM): 18.43 ± 2.03%
Percent Dose Recovered, Small Intestine (male Sprague Dawley rats [3]; mean ± SEM): 8.98 ± 0.48%
Percent Dose Recovered, Stomach (male Sprague Dawley rats [3]; mean ± SEM): 4.86 ± 1.13%
Percent Dose Recovered, Total (male Sprague Dawley rats [3]; mean ± SEM, 10 mg/kg): 32% and 32.27 ± 1.38%

From US12428377B2, “Sodium-hydrogen exchanger 3 inhibitor compounds” (Eli Lilly and Company, priority 2019, dated 2025)
